Data reported in the supplement of paper PMC11061612.

What was measured:
Experiment in all cases: combination Emax (second highest fraction inhibited in the dose matrix, 72 h); higher = more inhibition; extreme values may be limits of the assay
[1] = test system: 8505C (Thyroid Gland Carcinoma)
Procedure, shortened: (§1)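 Cell lines in DMEM/F12 or RPMI with 10% FBS were plated in 1536-well plates, held 24 hours at 37°C, 5% CO2, then given two-drug dose matrices for 72 hours (DMSO typically 0.2%). Viability was read by CellTiter-Glo 2.0 luminescence and scaled as inhibition from 0 (vehicle wells) to 1 (blank wells). Combination Emax is the second-highest inhibition in the matrix; Bliss excess is observed combination effect minus expected EA + EB − EA·EB, EA and EB being single-agent effects.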

[2] = test system: CHSA8926 (Chondrosarcoma)
Procedure, shortened: as §1

G-361 (Melanoma) = test system: G-361 (Melanoma)
Procedure, shortened: as §1

[3] = test system: H9 (T-Cell Non-Hodgkin's Lymphoma)
Procedure, shortened: as §1

[4] = test system: HCC1419 (Breast Carcinoma)
Procedure, shortened: as §1

[5] = test system: IM-95 (Gastric Carcinoma)
Procedure, shortened: as §1

[6] = test system: JHH-4 (Hepatocellular Carcinoma)
Procedure, shortened: as §1

[7] = test system: KMS-12-BM (Plasma Cell Myeloma)
Procedure, shortened: as §1

[8] = test system: KP-3 (Pancreatic Carcinoma)
Procedure, shortened: as §1

[9] = test system: KU812 (Chronic Myelogenous Leukemia)
Procedure, shortened: as §1

[10] = test system: KY821 (Acute Myeloid Leukemia)
Procedure, shortened: as §1

[11] = test system: MOG-G-CCM (Low Grade Glioma)
Procedure, shortened: as §1

[12] = test system: MOLM-13 (Acute Myeloid Leukemia)
Procedure, shortened: as §1

[13] = test system: NCCIT (Other Solid Carcinomas)
Procedure, shortened: as §1

[14] = test system: NCI-H520 (Squamous Cell Lung Carcinoma)
Procedure, shortened: as §1

[15] = test system: NCI-H526 (Small Cell Lung Carcinoma)
Procedure, shortened: as §1

[16] = test system: NCI-H929 (Plasma Cell Myeloma)
Procedure, shortened: as §1

[17] = test system: PC-3 (Prostate Carcinoma)
Procedure, shortened: as §1

SJSA-1 (Osteosarcoma) = test system: SJSA-1 (Osteosarcoma)
Procedure, shortened: as §1

[18] = test system: ST486 (Burkitt's Lymphoma)
Procedure, shortened: as §1

SMILES | combination Emax [1] | combination Emax [2] | combination Emax (G-361 (Melanoma)) | combination Emax [3] | combination Emax [4] | combination Emax [5] | combination Emax [6] | combination Emax [7] | combination Emax [8] | combination Emax [9] | combination Emax [10] | combination Emax [11] | combination Emax [12] | combination Emax [13] | combination Emax [14] | combination Emax [15] | combination Emax [16] | combination Emax [17] | combination Emax (SJSA-1 (Osteosarcoma)) | combination Emax [18]
Cc1cc2ncnn2cc1Nc1ncc2c(n1)n(C1CCOCC1)c(=O)n2C [AZD7648] + C=CCn1c(=O)c2cnc(Nc3ccc(N4CCN(C)CC4)cc3)nc2n1-c1cccc(C(C)(C)O)n1 [AZD1775] (first compound max 10 µM, partner max 1 µM) | 0.175 | 0.592 | 0.545 | 0.969 | 0.341 | 0.501 | 0.483 | 0.937 | 0.282 | 0.799 | 0.994 | 0.48 | 1 | 0.853 | 0.81 | 0.721 | 0.827 | 0.263 | 0.486 | 0.98
Cc1cc2ncnn2cc1Nc1ncc2c(n1)n(C1CCOCC1)c(=O)n2C [AZD7648] + CCN(CCO)CCCOc1ccc2c(Nc3cc(CC(=O)Nc4cccc(F)c4)[nH]n3)ncnc2c1 [AZD2811] (first compound max 10 µM, 7x7, partner max 1 µM) | 0.212 | 0.47 | 0.359 | 0.722 | 0.285 | 0.424 | 0.245 | 0.574 | 0.237 | 0.66 | 0.495 | 0.445 | 1 | 0.334 | 0.704 | 0.356 | 0.838 | 0.243 | 0.359 | 0.831
Cc1cc2ncnn2cc1Nc1ncc2c(n1)n(C1CCOCC1)c(=O)n2C [AZD7648] + CN(C)CCCOc1ccc(-c2ccc3ncc4c(c3c2)n(C2CCOCC2)c(=O)n4C)cn1 [AZD0156] (first compound max 10 µM, 7x7, partner max 1 µM) | 0.189 | 0.446 | 0.217 | 0.331 | 0.358 | 0.303 | 0.247 | 0.49 | 0.159 | 0.467 | 0.417 | 0.256 | 0.523 | 0.282 | 0.614 | 0.15 | 0.855 | 0.257 | 0.456 | 0.274
Cc1cc2ncnn2cc1Nc1ncc2c(n1)n(C1CCOCC1)c(=O)n2C [AZD7648] + C[C@@H]1COCCN1C2=NC(=NC(=C2)C3(CC3)[S@](=N)(=O)C)C4=C5C=CNC5=NC=C4 [AZD6738] (first compound max 10 µM, 7x7, partner max 10 µM) | 0.361 | 0.428 | 0.45 | 0.964 | 0.327 | 0.317 | 0.276 | 0.926 | 0.296 | 0.769 | 0.92 | 0.577 | 0.998 | 0.641 | 0.771 | 0.637 | 0.846 | 0.402 | 0.435 | 0.893
Cc1cc2ncnn2cc1Nc1ncc2c(n1)n(C1CCOCC1)c(=O)n2C [AZD7648] + O=C(c1cc(Cc2n[nH]c(=O)c3ccccc23)ccc1F)N1CCN(C(=O)C2CC2)CC1 [Olaparib] (first compound max 10 µM, 7x7, partner max 10 µM) | 0.229 | 0.241 | 0.117 | 0.22 | 0.174 | 0.204 | 0.112 | 0.429 | 0.0579 | 0.393 | 0.355 | 0.236 | 0.43 | 0.192 | 0.485 | 0.473 | 0.761 | 0.265 | 0.18 | 0.424
COc1cccc2c1C(=O)c1c(O)c3c(c(O)c1C2=O)C[C@@](O)(C(=O)CO)C[C@@H]3O[C@H]1C[C@H](N)[C@H](O)[C@H](C)O1 [Doxorubicin] + Cc1cc2ncnn2cc1Nc1ncc2c(n1)n(C1CCOCC1)c(=O)n2C [AZD7648] (first compound max 1 µM, 7x7, partner max 10 µM) | 0.846 | 0.701 | 0.926 | 1 | 0.535 | 0.7 | 0.666 | 0.84 | 0.152 | 0.822 | 0.983 | 0.663 | 1 | 0.825 | 0.771 | 0.988 | 0.994 | 0.431 | 0.864 | 0.955
COc1cc2ncnc(Nc3ccc(F)c(Cl)c3)c2cc1OCCCN1CCOCC1 [Gefitinib] + CC(C)n1c(=O)n(C)c2cnc3cc(F)c(-c4ccc(OCCCN5CCCCC5)nc4)cc3c21 [AZD1390] (first compound max 10 µM, 7x7, partner max 0.3 µM) | 0.0956 | 0.194 | 0.812 | 0.47 | 0.425 | 0.171 | 0.234 | 0.308 | 0.0907 | 0.425 | 0.416 | 0.137 | 0.776 | 0.418 | 0.15 | 0.12 | 0.187 | 0.0447 | 0.0992 | 0.35
COc1cccc(OCCCN)c1-c1cc(Nc2cnc(C#N)cn2)n[nH]1 [Prexasertib] + C=CCn1c(=O)c2cnc(Nc3ccc(N4CCN(C)CC4)cc3)nc2n1-c1cccc(C(C)(C)O)n1 [AZD1775] (first compound max 1 µM, partner max 1 µM) | 0.727 | 0.531 | 0.765 | 1 | 0.269 | 0.691 | 0.701 | 1 | 0.472 | 0.819 | 1 | 0.821 | 1 | 0.917 | 0.853 | 0.937 | 0.847 | 0.442 | 0.686 | 1
COc1cccc(OCCCN)c1-c1cc(Nc2cnc(C#N)cn2)n[nH]1 [Prexasertib] + CCc1c2c(nc3ccc(O)cc13)-c1cc3c(c(=O)n1C2)COC(=O)[C@]3(O)CC [SN-38] (first compound max 1 µM, 7x7, partner max 0.3 µM) | 0.854 | 0.537 | 0.727 | 1 | 0.402 | 0.602 | 0.954 | 1 | 0.57 | 0.794 | 1 | 0.894 | 1 | 0.85 | 0.867 | 1 | 0.865 | 0.703 | 0.743 | 1
COc1cccc(OCCCN)c1-c1cc(Nc2cnc(C#N)cn2)n[nH]1 [Prexasertib] + CN(C)CCCOc1ccc(-c2ccc3ncc4c(c3c2)n(C2CCOCC2)c(=O)n4C)cn1 [AZD0156] (first compound max 1 µM, 7x7, partner max 1 µM) | 0.541 | 0.288 | 0.702 | 1 | 0.258 | 0.458 | 0.529 | 1 | 0.513 | 0.782 | 1 | 0.699 | 1 | 0.833 | 0.775 | 0.895 | 0.825 | 0.272 | 0.711 | 0.991
COc1cccc(OCCCN)c1-c1cc(Nc2cnc(C#N)cn2)n[nH]1 [Prexasertib] + C[C@@H]1COCCN1C2=NC(=NC(=C2)C3(CC3)[S@](=N)(=O)C)C4=C5C=CNC5=NC=C4 [AZD6738] (first compound max 1 µM, 7x7, partner max 10 µM) | 0.551 | 0.361 | 0.655 | 1 | 0.449 | 0.267 | 0.501 | 1 | 0.456 | 0.756 | 1 | 0.644 | 1 | 0.797 | 0.775 | 0.92 | 0.741 | 0.431 | 0.575 | 0.98
COc1cccc(OCCCN)c1-c1cc(Nc2cnc(C#N)cn2)n[nH]1 [Prexasertib] + Cc1cc2ncnn2cc1Nc1ncc2c(n1)n(C1CCOCC1)c(=O)n2C [AZD7648] (first compound max 1 µM, 7x7, partner max 10 µM) | 0.483 | 0.416 | 0.696 | 1 | 0.288 | 0.36 | 0.62 | 1 | 0.465 | 0.789 | 1 | 0.702 | 1 | 0.801 | 0.881 | 0.92 | 0.847 | 0.358 | 0.656 | 0.996
COc1cccc(OCCCN)c1-c1cc(Nc2cnc(C#N)cn2)n[nH]1 [Prexasertib] + O=C(c1cc(Cc2n[nH]c(=O)c3ccccc23)ccc1F)N1CCN(C(=O)C2CC2)CC1 [Olaparib] (first compound max 1 µM, 7x7, partner max 10 µM) | 0.722 | 0.398 | 0.668 | 1 | 0.266 | 0.253 | 0.532 | 1 | 0.469 | 0.796 | 1 | 0.673 | 1 | 0.621 | 0.825 | 0.912 | 0.727 | 0.43 | 0.639 | 0.973
